Tests used:
[1] = tested on: FAS and SREBP-1c in HepG2 cells; assay: mRNA content of FAS and SREBP-1c in HepG2 cells (TaqMan); format: cell-based
Method: THP-1 (3×10^5 cells per dish) cells were seeded in […] RPMI-1640 medium (ATTC, Cat. No. 30-2001) containing 10% FCS (GIBCO) and 100 nM TPA and cultivated at 37° C. in 5% CO2 for 24 or 48 hours. HepG2 (4.5×10^5 cells per dish) were seeded in 24 well dishes in 3 ml DMEM Medium containing 10% FCS (GIBCO) and cultivated at 37° C. in 5% CO2 for 48 hours as indicated in FIG. 8B or until they are approx. 60% confluent.
The medium was then removed and replaced with medium containing 10% charcoal/stripped FCS (Hyclone) for 12 h.
LXR compounds are dissolved in DMSO, with the final solvent concentration never exceeding 0.125%. All treatments are done in triplicates and experiments repeated twice. Total RNA is extracted using the Qiagen Rneasy Mini Kit and treated with DNase (DNA free kit, Ambion). RNA is reverse transcribed with Oligo (dT) primer and real-time reverse transcription PCR (TaqMan) is performed using the ABI Prism 7900HT Sequence Detection System and reagents supplied by Applied Biosystems. mRNA steady state levels are normalised to H3 histone (H3F3A) expression levels.
The sequences of forward primers, reverse primers and TaqMan probes are as follows

GAL4-LXRb-LBD = biological target: T1, GAL4-LXRb-LBD (Homo sapiens, UniProt P55055); assay: Mammalian one hybrid (M1H) luciferase assay in HEK293 cells, LXR beta LBD; format: cell-based; conditions: for LXR beta LBD construct mediated luciferase activity compared with LXR alpha construct: M1H assay
T1 construct: expressed in transfected cells; host or cells: HEK293
T1 sequence (P55055 222-460 limits assumed): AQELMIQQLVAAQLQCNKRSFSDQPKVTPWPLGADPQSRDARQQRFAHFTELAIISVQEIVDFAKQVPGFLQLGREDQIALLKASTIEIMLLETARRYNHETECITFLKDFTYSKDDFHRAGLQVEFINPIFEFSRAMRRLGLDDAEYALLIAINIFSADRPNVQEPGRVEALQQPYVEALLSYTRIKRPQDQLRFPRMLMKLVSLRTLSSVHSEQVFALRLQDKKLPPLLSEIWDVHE
Method: For TR1040001892, TR1040011382, TR1040002211, and TR1040002212, HEK293 cells are grown in 96 well plates and co-transfected with pFR-luc (Stratagene) and pCMV-BD-LXRa-LBD or pCMV-BD-LXRb-LBD (each 100 ng of plasmid DNA per well). Transfection is carried using Lipfectamine 2000 (Gibco-BRL) according to the manufacturers protocol. The ligand binding domains (LBD) of LXRa and LXRb are cloned into the pCMV-BD-GW (the Gateway Reading Frame Cassette B is cloned as an EcoRV fragment into Sma1 site of pCMV-BD) applying the manufacturer protocols for the Gateway system (Invitrogen). […] The type of assay used here is a mammalian one hybrid (M1 H) assay that is known to those skilled in the art.

| SMILES | upregulation of FAS [1] | upregulation of SREBP-1c [1] | luciferase reporter gene expression mediated through GAL4-LXRb-LBD (GAL4-LXRb-LBD) | LXR beta LBD construct mediated luciferase activity compared with LXR alpha construct (GAL4-LXRb-LBD) |
| --- | --- | --- | --- | --- |
| C=CCn1c(N2C3CC(C)(C)CC2(C)C3)nc2ccc(I)cc2c1=O (centres unmarked) [formula (9)] | does not significantly upregulate | much reduced | activate luciferase reporter gene expression in a dose dependent manner | much stronger than with LXR alpha construct |
| CC(C)n1c(N2C3CC(C)(C)CC2(C)C3)nc2ccc(I)cc2c1=O (centres unmarked) [formula (10)] | – | – | activate luciferase reporter gene expression in a dose dependent manner | much stronger than with LXR alpha construct |
| CCCn1c(N2[C@@H]3CC(C)(C)C[C@@]2(C)C3)nc2cccc(F)c2c1=O [formula (11)] | – | – | activate luciferase reporter gene expression in a dose dependent manner | – |
| C=CCn1c(N2[C@@H]3CC(C)(C)C[C@@]2(C)C3)nc2cccc(F)c2c1=O [formula (12)] | – | – | activate luciferase reporter gene expression in a dose dependent manner | – |

Reference: patent US20050261319A1, “Novel 2-amino-4-quinazolinones and 2-amino-4-oxoquinazolones as LXR nuclear receptor binding compounds with partial agonistic properties” (priority 2002, published 2005)
